In ChEMBL document CHEMBL1157437, “Synthesis and biological activities of reveromycin A and spirofungin A derivatives” (Bioorg Med Chem Lett, 2008):

Legend:
NRK [1] = experiment: Effect on morphological reversion in src transformed NRK cells at 30 ug/mL; type: functional; conditions: Rattus norvegicus
NRK [2] = experiment: Effect on morphological reversion in src transformed NRK cells at 100 ug/mL; type: functional; conditions: Rattus norvegicus
NRK [3] = experiment: Effect on morphological reversion in src transformed NRK cells at 3 ug/mL; type: functional; conditions: Rattus norvegicus
[4] = target: T1, Isoleucine--tRNA ligase, cytoplasmic (Homo sapiens, UniProt P41252); experiment: Inhibition of IleRS
T1 sequence (P41252 whole entry): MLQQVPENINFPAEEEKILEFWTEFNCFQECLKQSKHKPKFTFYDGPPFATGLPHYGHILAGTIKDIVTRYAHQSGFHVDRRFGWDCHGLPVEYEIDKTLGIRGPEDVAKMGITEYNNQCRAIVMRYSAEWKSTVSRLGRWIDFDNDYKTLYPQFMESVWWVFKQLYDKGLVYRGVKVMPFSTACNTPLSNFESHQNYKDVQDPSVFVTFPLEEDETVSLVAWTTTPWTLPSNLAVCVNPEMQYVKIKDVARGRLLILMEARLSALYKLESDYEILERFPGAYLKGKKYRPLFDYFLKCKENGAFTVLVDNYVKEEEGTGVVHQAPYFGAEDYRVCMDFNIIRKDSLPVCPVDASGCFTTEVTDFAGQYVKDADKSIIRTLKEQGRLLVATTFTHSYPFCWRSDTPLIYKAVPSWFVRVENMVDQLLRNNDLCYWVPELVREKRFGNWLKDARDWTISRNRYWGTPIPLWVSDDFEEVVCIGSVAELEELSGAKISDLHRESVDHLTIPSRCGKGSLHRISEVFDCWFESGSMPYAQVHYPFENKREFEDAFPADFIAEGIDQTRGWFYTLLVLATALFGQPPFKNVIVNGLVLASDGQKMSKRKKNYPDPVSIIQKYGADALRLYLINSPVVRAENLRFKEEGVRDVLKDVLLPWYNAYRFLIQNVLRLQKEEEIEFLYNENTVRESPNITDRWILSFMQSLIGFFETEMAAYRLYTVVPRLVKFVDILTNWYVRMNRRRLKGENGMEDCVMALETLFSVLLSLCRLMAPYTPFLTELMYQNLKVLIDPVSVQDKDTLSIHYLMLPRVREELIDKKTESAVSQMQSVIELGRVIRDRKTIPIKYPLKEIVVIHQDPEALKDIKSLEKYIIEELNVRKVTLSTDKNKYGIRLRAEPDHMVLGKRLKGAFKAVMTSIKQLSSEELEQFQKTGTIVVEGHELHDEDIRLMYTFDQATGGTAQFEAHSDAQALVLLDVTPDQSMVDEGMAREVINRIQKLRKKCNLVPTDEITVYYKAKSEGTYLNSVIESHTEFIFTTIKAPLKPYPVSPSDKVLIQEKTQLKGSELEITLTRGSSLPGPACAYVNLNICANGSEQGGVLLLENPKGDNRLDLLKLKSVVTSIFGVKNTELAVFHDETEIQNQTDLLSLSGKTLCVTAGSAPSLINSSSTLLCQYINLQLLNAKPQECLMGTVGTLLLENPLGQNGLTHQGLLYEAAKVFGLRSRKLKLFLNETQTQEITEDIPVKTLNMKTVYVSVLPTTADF

NRK [5] = experiment: Effect on morphological reversion in src transformed NRK cells at 10 ug/mL; type: functional; conditions: Rattus norvegicus
Osteoclast = experiment: Induction of apoptosis in mouse osteoclasts; type: functional
NRK [6] = experiment: Effect on morphological reversion in src transformed NRK cells at 1 ug/mL; type: functional; conditions: Rattus norvegicus
NRK [7] = experiment: Effect on morphological reversion in src transformed NRK cells at 0.3 ug/mL; type: functional; conditions: Rattus norvegicus

| SMILES | inhibition at 30 µg/mL (NRK [1]) | inhibition at 100 µg/mL (NRK [2]) | inhibition at 3 µg/mL (NRK [3]) | IC50 [4] | inhibition at 10 µg/mL (NRK [5]) | Activity (Osteoclast) | inhibition at 1 µg/mL (NRK [6]) | inhibition at 0.3 µg/mL (NRK [7]) |
| --- | --- | --- | --- | --- | --- | --- | --- | --- |
| CCCC[C@@]1(OC(=O)CCC(=O)O)CC[C@]2(CC[C@H](C)[C@@H](C/C=C(\C)COC(=O)CCC(=O)O)O2)O[C@H]1/C=C/C(C)=C/C(=O)O | < 10% | < 10% | < 10% | > 1570 nM | < 10% | >15 µg/mL |  |  |
| CCCC[C@@]1(OC(=O)CCC(=O)O)CC[C@]2(CC[C@H](C)[C@@H](C/C=C(C)/C=C/[C@H](O)[C@@H](C)/C=C/C(=O)OC)O2)O[C@H]1/C=C/C(C)=C/C(=O)O | > 80% | > 80% | 20% | 313 nM | > 80% | 2 µg/mL | < 10% |  |
| CCCC[C@@]1(OC(=O)CCC(=O)O)CC[C@]2(CC[C@H](C)[C@@H](C/C=C(C)/C=C/[C@H](O)[C@@H](C)/C=C/C(=O)O)O2)O[C@H]1/C=C/C(C)=C/C(=O)OC | > 80% | > 80% | < 10% | > 1480 nM | 10% | 3.1 µg/mL | < 10% |  |
| CCCC[C@@]1(OC(=O)CCC(=O)O)CC[C@]2(CC[C@H](C)[C@@H](C/C=C(\C)CO)O2)O[C@H]1/C=C/C(C)=C/C(=O)O | < 10% | < 10% | < 10% | > 1860 nM | < 10% |  |  |  |
| CCCC[C@@]1(OC(=O)CCC(=O)O)CC[C@]2(CC[C@H](C)[C@@H](C/C=C(C)/C=C/[C@@H](O)[C@@H](C)CCC(=O)O)O2)O[C@H]1/C=C/C(C)=C/C(=O)O [2,3-DIHYDRO-5-EPIREVEROMYCIN A] | < 10% | 50% | < 10% | 88 nM | < 10% | 0.82 µg/mL |  |  |
| CCCC[C@@]1(OC(=O)CCC(=O)O)CC[C@]2(CC[C@H](C)[C@@H](C/C=C(C)/C=C/[C@H](O)[C@@H](C)CCC(=O)O)O2)O[C@H]1/C=C/C(C)=C/C(=O)O [2,3-DIHYDROREVEROMYCIN A] | 50% | > 80% | 10% | 17.5 nM | 20% | 0.22 µg/mL |  |  |
| CCCC[C@@]1(OC(=O)CCC(=O)O)CC[C@]2(CC[C@H](C)[C@@H](C/C=C(C)/C=C/[C@H](O)[C@@H](O)/C=C/C(=O)O)O2)O[C@H]1/C=C/C(C)=C/C(=O)O [4-HYDROXY REVEROMYCIN A] | 20% | > 80% | < 10% | 21.7 nM | 10% | 1.01 µg/mL | < 10% | < 10% |
| CCCC[C@@]1(OC(=O)CCC(=O)O)CC[C@]2(CC[C@H](C)[C@@H](C/C=C(C)/C=C/[C@@H](O)[C@@H](C)/C=C/C(=O)O)O2)O[C@H]1/C=C/C(C)=C/C(=O)O [5-EPIREVEROMYCIN A] | < 10% | < 10% | < 10% | 572 nM | < 10% | 21.5 µg/mL |  |  |
| CCCC[C@]1([C@H](/C=C/C(C)=C/C(=O)O)OC(=O)CCC(=O)O)CC[C@]2(CC[C@H](C)[C@@H](C/C=C(C)/C=C/[C@H](O)[C@@H](C)/C=C/C(=O)O)O2)O1 [REVEROMYCIN B] |  | < 10% | < 10% | > 1510 nM |  | >15 µg/mL |  |  |
| CC(/C=C/[C@H](O)[C@@H](C)/C=C/C(=O)O)=C\C[C@H]1O[C@@]2(CC[C@H](C)[C@H](/C=C/C(C)=C/C(=O)O)O2)CC[C@@H]1C [SPIROFUNGIN A] | 20% | > 80% | < 10% | 1120 nM | 10% | >30 µg/mL |  |  |
| CC(/C=C/[C@H](O)[C@@H](C)/C=C/C(=O)O)=C\C[C@H]1O[C@]2(CC[C@H](C)[C@H](/C=C/C(C)=C/C(=O)O)O2)CC[C@@H]1C [SPIROFUNGIN B] | < 10% | < 10% | < 10% | > 1990 nM | < 10% | >30 µg/mL |  |  |
